Measurements published in patent publication US4054659A, “5,7 Dihydroxy-1-(trimethoxybenzyl)-1,2,3,H-tetrahydroisoquinolines and use thereof” (Tanabe Seiyaku Co., Ltd., priority 1974, dated 1977).

Tests used:
[1] = 50% lethal dose (LD50) by intravenous injection to mice; conditions: mouse, in vivo
Source text: The toxicity of the 5,7-dihydroxytetrahydroisoquinoline derivative (I) of the present invention is considerably low.

[2] = tested on: serotonin-creatinin sulfate-induced bronchoconstriction; assay: Preventive effects against serotonin-creatinin sulfate-induced bronchoconstriction (bronchodilating activity) in anesthetized cats; assay type: in vivo; conditions: for Preventive effects against bronchoconstriction: cats, 10 μg/kg, duodenum
Source text: The 5,7-dihydroxy-tetrahydroisoquinoline derivative (I) of the present invention or a pharmaceutically acceptable acid addition salt thereof has potent bronchodilating activity and is useful as a bronchodilator. Moreover, as compared with 6,7-dihydroxy-1-(3,4,5-trimethoxybenzyl)-1,2,3,4-tetrahydroisoquinoline, the 5,7-dihydroxy-tetrahydroisoquinoline derivative (I) of the present invention is more useful because of the longer duration of its point bronchodilating activity and/or lesser side effects (e.g., lesser increase of the heart rate). […] However, the bronchodilating activity of the former lasts for more than 3.5 hours at its maximum level, whereas the latter decreases to about 1/3 the maximum level after 3.5 hours.
(§1) Cats were anesthetized with sodium pentobarbital (40 mg/.kg, i.p.). Under artificial respiration (13 - 15 ml of air/kg/stroke, 30 strokes/minute) thereof, the cats were immobilized by intraveous injection of gallamine triethyodide (8 mg/kg). Serotonin.creatinin sulfate (=bronchoconstrictor) was injected intravenously to the cats at the dose of 20 μg/kg, and the intratracheal pressure was measured by means of a pressure transducer. Then, each one of test compounds was administered to the duodenum of the cats at the dose of 10 μg/kg, and the intratracheal pressure and the heart rate were measured with the passage of time. The bronchodilating activity was estimated by the preventive effects (%) of each test compound against bronchoconstriction.

heart rate = assay: Increase of heart rate after duodenal administration in anesthetized cats; assay type: in vivo; conditions: 10 μg/kg, duodenum
Method: as §1

[3] = 15 minutes after administration
[4] = 30 minutes after administration
[5] = 45 minutes after administration
[6] = 60 minutes after administration
[7] = 75 minutes after administration
[8] = 90 minutes after administration
[9] = 120 minutes after administration
[10] = 150 minutes after administration
[11] = 180 minutes after administration
[12] = 210 minutes after administration

| Compound | Preventive effects against bronchoconstriction ([2]; 5 minutes after administration) [%] | Preventive effects against bronchoconstriction [2, 3] [%] | Preventive effects against bronchoconstriction [2, 4] [%] | Preventive effects against bronchoconstriction [2, 5] [%] | Preventive effects against bronchoconstriction [2, 6] [%] | Preventive effects against bronchoconstriction [2, 7] [%] | Preventive effects against bronchoconstriction [2, 8] [%] | Preventive effects against bronchoconstriction [2, 9] [%] | Preventive effects against bronchoconstriction [2, 10] [%] | Preventive effects against bronchoconstriction [2, 11] [%] | Preventive effects against bronchoconstriction [2, 12] [%] | other results |
| --- | --- | --- | --- | --- | --- | --- | --- | --- | --- | --- | --- | --- |
| COc1cc(CC2NCCc3c(O)cc(O)cc32)cc(OC)c1OC.Cl (stereo not shown) [A, 5,7-dihydroxy-1-(3,4,5-trimethoxybenzyl)-1,2,3,4-tetrahydroisoquinoline hydrochloride] | 8.5 ± 3.2 | 47.9 ± 8.5 | 63.5 ± 9.9 | 69.7 ± 8.7 | 71.1 ± 7.1 | 70.7 ± 6.8 | 72.5 ± 6.1 | 71.0 ± 5.6 | 70.2 ± 6.4 | 69.1 ± 5.7 | 64.6 ± 7.4 | LD50 [1]: ~51 mg/kg; Duration of bronchodilating activity at its maximum level ([2]; after duodenal administration): more than 3.5 hours; Maximum preventive effects compared with 6,7-dihydroxy-1-(3,4,5-trimethoxybenzyl)-1,2,3,4-tetrahydroisoquinoline (hydrochloride) ([2]; duodenal administration): almost the same maximum preventive effects; Increase of heart rate (Number of heart beats increased/minute) (heart rate; 5 minutes after administration): 1.3 ± 0.3 heart beats increased/minute; Increase of heart rate (Number of heart beats increased/minute) (heart rate; [3]): 10.6 ± 3.4 heart beats increased/minute; Increase of heart rate (Number of heart beats increased/minute) (heart rate; [4]): 22.2 ± 6.5 heart beats increased/minute; Increase of heart rate (Number of heart beats increased/minute) (heart rate; [5]): 21.3 ± 5.2 heart beats increased/minute; Increase of heart rate (Number of heart beats increased/minute) (heart rate; [6]): 20.0 ± 4.4 heart beats increased/minute; Increase of heart rate (Number of heart beats increased/minute) (heart rate; [7]): 18.7 ± 3.8 heart beats increased/minute; Increase of heart rate (Number of heart beats increased/minute) (heart rate; [8]): 17.8 ± 3.0 heart beats increased/minute; Increase of heart rate (Number of heart beats increased/minute) (heart rate; [9]): 17.2 ± 2.3 heart beats increased/minute; Increase of heart rate (Number of heart beats increased/minute) (heart rate; [10]): 15.2 ± 2.1 heart beats increased/minute; Increase of heart rate (Number of heart beats increased/minute) (heart rate; [11]): 13.7 ± 1.4 heart beats increased/minute; Increase of heart rate (Number of heart beats increased/minute) (heart rate; [12]): 12.0 ± 1.4 heart beats increased/minute |
| COc1cc(CC2NCCc3cc(O)c(O)cc32)cc(OC)c1OC.Cl (stereo not shown) [B, 6,7-dihydroxy-1-(3,4,5-trimethoxybenzyl)-1,2,3,4-tetrahydroisoquinolin hydrochloride, reference compound] | 21.1 ± 8.6 | 71.2 ± 7.6 | 77.6 ± 5.2 | 73.9 ± 2.6 | 67.2 ± 3.4 | 62.3 ± 5.1 | 54.7 ± 6.0 | 45.5 ± 7.5 | 38.0 ± 8.7 | 31.6 ± 9.5 | 26.0 ± 7.4 | Bronchodilating activity remaining after 3.5 hours, as fraction of the maximum level ([2]; after 3.5 hours, duodenal administration): about 1/3 |
